Experimental data published in patent publication US20100267952A1, “USE OF NOVEL COMPOUND HAVING AFFINITY FOR AMYLOID, AND PROCESS FOR PRODUCTION OF THE SAME” (NIHON MEDI-PHYSICS CO., LTD., priority 2007, published 2010).
Where two headings read alike, the source gives them in different places.

How the values were obtained:
[1] = molecular target: T1, amyloid (aggregated Aβ1-40) (Homo sapiens, UniProt P05067); assay: Measurement of affinity with amyloid: inhibition of [125I]3′-I-BTA-0 binding; conditions: [125I]3′-I-BTA-0 400 pmol/L, amyloid 1 μmol/L, 22° C., 3 hours
T1 construct: Aβ1-40 (Peptide Institute, INC.) was dissolved in phosphate buffer (pH 7.4); purchased Peptide Institute, INC
T1 sequence (P05067 672-711 limits assumed): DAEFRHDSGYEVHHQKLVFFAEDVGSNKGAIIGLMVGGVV
Description: Affinity of the present compounds with amyloid was examined by the following in vitro binding tests.
(1) Aβ1-40 (Peptide Institute, INC.) was dissolved in phosphate buffer (pH 7.4) and shaken at 37° C. for 62-72 hours, to obtain a 1 mg/mL suspension of aggregated Aβ (hereinafter referred to as amyloid suspension in this Example).
(3) According to the method described in a literature (Wang, Y., et al., J. Labeled Compounds Radiopharmaceut. 44, 5239 (2001)), [^125I]2-(3′-iodo-4′-aminophenyl)benzothiazole (hereinafter referred to as […]) was prepared from a labeling precursor 2-(4′-aminophenyl)benzothiazole, and dissolved in ethanol.
(5) Samples in which [^125I]3′-I-BTA-0, each compound for evaluation and amyloid were dissolved in a 0.1% bovine serum albumin-containing phosphate buffer (pH 7.4) at final concentrations shown in Table 1-2 were prepared. The resulting samples were filled in each well (about 0.3 mL in volume) of a 96-well microplate.
(6) The microplate filled with the sample solutions was shaken at a given rate (400 rpm) at 22° C. for 3 hours. Then, each sample solution was filtered through a glass fiber filter (trade name: Mulutiscreen™-FC, manufactured by Millipore), to separate the [^125I]3′-I-BTA-0 attached to amyloid from the free [^125I]3′-I-BTA-0.
(7) The glass fiber filter used for the filtration of each sample solution was washed with a 0.1% bovine serum albumin-containing phosphate buffer (pH 7.4) (0.5 mL×5), and radioactivity of the glass fiber filter was measured with an autowell gamma system (manufactured by Aloka, Type: ARC-301B).
(8) Separately, a solution of containing 15 μmol/L of 6-Me-BTA-2, […] of [^125I]3′-I-BTA-0 and 1 μmol/L of Aβ1-40 were prepared and subjected to the same procedures as described above in (6) and (7) to measure a radioactivity level. The measured radioactivity level was defined as the background radioactivity level, and used in the calculation of the inhibition ratio (hereinafter referred to as BG).
(9) Using the radioactivity levels measured above in (7) and (8), the inhibition ratio was determined by the following formula (1-1).
A graph in which values converted by probit transformation from the obtained inhibition ratios were plotted relative to logarithms of concentrations of compounds for evaluation was prepared to obtain an approximate straight line by the least square method. Using the line, the concentration of each compound for evaluation was determined, at which the radioactivity level is half of the level of the sample free from each compound for evaluation, and was defined as a 50% inhibition concentration of each compound (hereinafter referred to as IC50% value). Using the value as an indicator, affinity of each compound for evaluation with amyloid (aggregated Aβ1-40) was evaluated.

[2] = Transferability into brain and clearance; format: in vivo, male Wistar rats; conditions: rats, intravenous injection
Source text: Three animals were used for Experiment I-20 and Comparative Experiment I-9, and two animals were used for Experiment I-21 at the respective time points.

[3] = Partition coefficient based on the octanol extraction method; format: physicochemical; conditions: octanol / 10 mmol/L phosphate buffer (pH 7.4)
Description: After the mixture was centrifuged with a low-speed centrifuge (2000 rpm×60 min.), the octanol layer and the water layer were sampled each in an amount of 1 mL, and subjected to measurement of radioactivity count with an autowell gamma system (manufactured by Aloka, Type: ARC-301B). Using the obtained radioactivity count, log Poctanol was calculated in accordance with the equation (1-2).

[4] = tested on: Salmonella typhimurium TA98 and TA100; assay: Reverse mutation test (Ames test), overall judgment; format: cell-based; conditions: TA98 and TA100, with and without S9mix
Description: (§1) In order to examine mutagenicity of Compound I-1, I-2, I-4 and I-5, reverse mutation test using Salmonella typhimurium TA98 and TA100 (hereinafter referred to as Ames test) was conducted.
(§2) The test was conducted without addition of S9mix and with addition of S9mix. Dimethylsulfoxide was used as a negative control. A positive control was 2-(2-furyl)-3-(5-nitro-2-furyl)acrylamide in case S9mix was not added, and 2-aminoanthracene in case S9mix was added.
(§3) The amount of each sample to be added to the test plate was 7 dosages (geometric ratio 4) with the maximum dose being 1250 μg/plate for Compounds I-1 and I-5, and 7 dosages (geometric ratio 3) with the maximum dose being 5000 μg/plate for Compounds I-2 and I-4. After a sample to be examined and a strain (TA98 or TA100), or a sample to be examined, S9mix and the strain were mixed together, the mixture was multilayered using soft agar on a medium of a test plate, and then incubated at 37° C. for 48 hours.
The numbers of reverse mutation colonies of the respective strains in the group treated with Compounds I-1, I-2, I-4 and I-5 were less than two times the number in the group treated with the negative control, regardless of addition of S9mix and the addition amount of a sample to be examined. From the aforementioned results, it is judged that Compounds I-1, I-2, I-4 and I-5 are negative in the Ames test and have no mutagenicity.

[5] = tested on: Salmonella typhimurium TA98; assay: Reverse mutation test (Ames test), TA98; format: cell-based
Description: as §1, §2, §3

[6] = tested on: Salmonella typhimurium TA100; assay: Reverse mutation test (Ames test), TA100; format: cell-based
Description: as §1, §2, §3

amyloid (amylin) = molecular target: T2, amyloid (amylin) (Homo sapiens, UniProt P10997); assay: Inhibition of binding of Thioflavin T to amyloid derived from amylin; conditions: Thioflavin T 5 μmol/L
T2 construct: Amylin (human) (manufactured by Wako) was dissolved in phosphate buffer (pH 7.4); purchased Wako
T2 sequence (P10997 34-70 limits assumed): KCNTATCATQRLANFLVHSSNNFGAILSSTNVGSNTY
Description: Amylin is an amyloid accumulating in pancreas of type II diabetes.
(3) The amyloid suspension was dissolved in 50 mM phosphate buffer (pH 7.4) at a concentration of amylin of 15 μM.
(4) Samples in which each compound for evaluation and amyloid were dissolved in a 50 mM phosphate buffer (pH 7.4) at final concentrations shown in Table 2-1 were prepared.
(5) A sample in which 100 μL of 50 mM phosphate buffer (pH 7.4) and 50 μL of 50 mM glycin-NaOH buffer (pH 8.5) were mixed was made as a blank, and subjected to the same procedure as in (4) and used for a calculation of inhibition ratio.
(6) The microplate filled with the sample solutions was left to stand still for 30 hours. Then, fluorescence strength of each sample solution was measured (measurement conditions: excitation wavelength of 446 nm, emission wavelength of 490 nm) with microplate reader (type: SPECTRA MAX GEMINI XS, manufactured by Molecular Devices) (hereinafter, A denotes the fluorescence strength in a sample with zero (0) concentration of each compound for evaluation, and B denotes the fluorescence strength in a sample with 1.5 μmol/L or higher concentration of each compound for evaluation).
(7) Using the fluorescence strength measured above in (6), the following formula (2-1): […]
was used to determine the inhibition ratio.

[7] = [11C]-labeled, rats; cited from earlier work
[8] = [125I]-labeled, normal mice; cited from earlier work
[9] = molecular target: T1, amyloid (aggregated Aβ1-40); assay: Measurement of binding to amyloid (radiolabelled compound, glass fiber filtration); conditions: amyloid 2.5-1000 nmol/L, 22° C., 3 hours
Description: (7) A relation between the amount of the Compound I-6 binding to amyloid and the amount of added amyloid was evaluated from the measurement results of (6). Unspecific binding was determined using a sample to which the Compound I-2 (non-RI labeled compound) was added to become 100 nM (at a final concentration) above in (4) (Example I-7).
(8) Using [^125I]-IMPY synthesized in the above Reference Example I-6, the same procedure as the above (2) to (6) were carried out to obtain control data (Comparative Example I-1).
A relation between the concentration of amyloid in the sample solution and the radioactive count on the glass fiber filter measured above in (6) is shown in FIG. 1-11. The radioactivity on the glass fiber was increased proportionally to the concentration (addition amount) of amyloid (Example I-7). […] Therefore, the radioactive count on the glass fiber is a value reflecting the amount of the compound attached to amyloid, and the slope of the graph which plotted the radioactive count relative to the concentration of amyloid is a value which can be an index representing the intensity of binding to amyloid.

[10] = International Publication No. WO03/106439; cited from earlier work
[11] = molecular target: T3, amyloid (aggregated Aβ1-40) injected into amygdaloid nucleus (Homo sapiens, UniProt P05067); assay: Confirmation of imaging of amyloid in brain (autoradiogram of brain slice, Aβ1-40 injected rat); format: in vivo, male Wistar rat; conditions: tail vein, 16 MBq equivalent, brain removed 60 minutes after injection
T3 construct: Aβ1-40 (Peptide Institute, INC.) was dissolved in phosphate buffer (pH 7.4); purchased Peptide Institute, INC
T3 sequence (P05067 672-711): as the sequence (P05067 672-711 limits assumed) above
Description: The following experiment was carried out in order to examine whether amyloid in brain can be imaged by the compound of the present invention.
(1) Aβ1-40 (manufactured by Peptide Institute, INC.) was dissolved in phosphate buffer (pH 7.4) and shaken at 37° C. for 72 hours, to obtain 1 mg/mL of a suspension of aggregated Aβ (hereinafter referred to as amyloid suspension in this Example).
(2) 25 μL (corresponding to 25 μg) of the amyloid suspension was injected into an amygdaloid nucleus on one side of a male Wistar rat (7-week old). As a control, 25 μL of a phosphate buffered physiological saline solution (pH 7.4) was injected into an amygdaloid nucleus on the other side of the rat. The rats were examined 1 day after the injection of the amyloid suspension and the phosphate buffered physiological saline solution (pH 7.4).
This solution was injected into the rat through the tail vein (dosage: 0.5 mL, dosed radioactivity: 16 MBq equivalent).
(4) Brain was removed 60 minutes after the injection to prepare a brain slice of 10 μm in thickness with a microtome (type: CM3050S, manufactured by LEICA). The brain slice was exposed to an imaging plate for 20 hours, and then image analysis was carried out by use of a Bio-imaging Analyzer (type: BAS-2500; manufactured by FUJIFILM Corporation).

For `FCCOc1ccc(-c2cn3cc(Br)ccc3n2)cc1` [Compound I-3, 6-bromo-2-[4′-(2″-fluoroethoxy)phenyl]imidazo[1,2-a]pyridine], which IC50 [1] is on record?
Its IC50 is 1.8 nM.

For `[18F]CCCOc1ccc(-c2cn3cc(Br)ccc3n2)cc1` [Compound I-8, 6-bromo-2-[4′-(3″-[^18F]fluoropropoxy)-phenyl]imidazo[1,2-a]pyridine], which “Radioactive distribution per unit weight in brain, After 2 min.” value [2] is on record?
The value was 1.20 % ID/g.

What about the “Radioactive distribution per unit weight in brain, After 5 min.” value [2] of the same compound?
The value was 0.75 % ID/g.

What about the “Radioactive distribution per unit weight in brain, After 30 min.” value [2] of the same compound?
Its value is 0.18 % ID/g.

And the “Radioactive distribution per unit weight in brain, After 60 min.” value [2]?
Its value is 0.12 % ID/g.

And the logPoctanol value [3]?
Its logPoctanol value is 2.0.

What does the source list for `FCCCOc1ccc(-c2cn3cc(I)ccc3n2)cc1` [Compound I-2, 2-[4′-(3″-fluoropropoxy)phenyl]-6-iodoimidazo[1,2-a]pyridine]?
Ames test judgment [4]: negative; Mutagenicity, TA98, With addition of S9mix [5]: Negative; Mutagenicity, TA98, Without addition of S9mix [5]: Negative; Mutagenicity, TA100, With addition of S9mix [6]: Negative; Mutagenicity, TA100, Without addition of S9mix [6]: Negative; IC50 [1]: 0.9 nM; Inhibition ratio (%) of binding of amyloid (amylin) to Thioflavin T (amyloid (amylin); compound 1.5 μmol/L): 28.9%; Inhibition ratio (%) of binding of amyloid (amylin) to Thioflavin T (amyloid (amylin); compound 15 μmol/L): 26.6%; Inhibition ratio (%) of binding of amyloid (amylin) to Thioflavin T (amyloid (amylin); compound 30 μmol/L): 28.2%

Which “clearance from normal tissues” value [7] does the source give for `CNc1ccc(/C=C/c2ccc(O)cc2)cc1` [SB-13, (E)-4-methylamino-4′-hydroxystilbene] here?
Its value is “it cannot be said that the clearance is sufficiently fast”.

Which “clearance from normal tissues” value [8] does the source give for `CN(C)c1ccc(-c2nc3ccc(I)cc3s2)cc1` [TZDM, 6-iodo-2-[4′-(N,N-dimethylamino)phenyl]benzothiazole] here?
The value was “insufficient in clearance from normal tissues”.

Which “slope of radioactive count on glass fiber relative to concentration of amyloid (index of intensity of binding to amyloid)” value [9] does the source give for `FCCCOc1ccc(-c2cn3cc([125I])ccc3n2)cc1` [Compound I-6, 2-[4′-(3″-fluoropropoxy)phenyl]-6-[^125I]iodoimidazo[1,2-a]pyridine] here?
Its value is “greater than the slope for [^125I]-IMPY”.

Which results are given for `FCCCOc1ccc(-c2cn3cc(I)cnc3n2)cc1` [Compound I-5, 2-[4′-(3″-fluoropropoxy)phenyl]-6-iodoimidazo[1,2-a]pyrimidine]?
Ames test judgment [4]: negative; Mutagenicity, TA98, With addition of S9mix [5]: Negative; Mutagenicity, TA98, Without addition of S9mix [5]: Negative; Mutagenicity, TA100, With addition of S9mix [6]: Negative; Mutagenicity, TA100, Without addition of S9mix [6]: Negative; IC50 [1]: 55.4 nM

With `CN(C)c1ccc(-c2nc3ccc(I)cc3o2)cc1` [IBOX, 6-iodo-2-[4′-(N,N-dimethylamino)phenyl]benzoxazole] as the compound, how does the “clearance from normal tissues” value [8] read?
The value was “insufficient in clearance from normal tissues”.

With `CC(=C(C#N)C#N)c1ccc2cc(N(C)CCF)ccc2c1` [FDDNP, 2-(1-{6-[(2-fluoroethyl)(methyl)amino]-2-naphthyl}ethylidene)malononitrile] as the compound, how does the reverse mutation test [10] read?
The reverse mutation test was “positive”.

For `FCCCOc1ccc(-c2cn3cc(Br)ccc3n2)cc1` [Compound I-1, 6-bromo-2-[4′-(3″-fluoropropoxy)phenyl]imidazo[1,2-a]pyridine], which Ames test judgment [4] is on record?
The Ames test judgment was “negative”.

And the “Mutagenicity, TA98, With addition of S9mix” value [5]?
The value was “Negative”.

What about the “Mutagenicity, TA98, Without addition of S9mix” value [5] of the same compound?
Its value is “Negative”.

What about the “Mutagenicity, TA100, With addition of S9mix” value [6] of the same compound?
Its value is “Negative”.

And the “Mutagenicity, TA100, Without addition of S9mix” value [6]?
Its value is “Negative”.

And the IC50 [1]?
Its IC50 is 1.4 nM.

What about the “Inhibition ratio (%) of binding of amyloid (amylin) to Thioflavin T” value (“Inhibition ratio (%)” below) (amyloid (amylin); compound 1.5 μmol/L) of the same compound?
The value was 14.5%.

And the “Inhibition ratio (%)” value (amyloid (amylin); compound 15 μmol/L)?
The value was 37.0%.

And the “Inhibition ratio (%)” value (amyloid (amylin); compound 30 μmol/L)?
The value was 43.7%.

Which results are given for `FCCCOc1ccc(-c2cn3cc([123I])ccc3n2)cc1` [Compound I-7, 2-[4′-(3″-fluoropropoxy)phenyl]-6-[^123I]iodoimidazo[1,2-a]pyridine]?
Radioactive distribution per unit weight in brain, After 2 min. [2]: 1.10 % ID/g; Radioactive distribution per unit weight in brain, After 5 min. [2]: 0.75 % ID/g; Radioactive distribution per unit weight in brain, After 30 min. [2]: 0.12 % ID/g; Radioactive distribution per unit weight in brain, After 60 min. [2]: 0.05 % ID/g; accumulation of radioactivity on intracerebral amyloid (autoradiogram) [11]: possesses a property of accumulating on intracerebral amyloid and a capability of imaging intracerebral amyloid

With `CN(C)c1ccc(/C=C/c2ccc(I)cc2)cc1` [m-I—SB, (E)-4-dimethylamino-4′-iodostilbene] as the compound, how does the “clearance from normal tissues” value [8] read?
Its value is “insufficient in clearance from normal tissues”.
